Where two headings read alike, the source gives them in different places. Residues, ends and D or L forms follow the SMILES beside them.
Assays:
[1] = outer NBD reduced with sodium dithionite
Protocol: A modification of the lipid mixing experiment allowed to measure peptide-induced mixing of the inner monolayer. A concentration of 0.6% mol for each of the fluorescent probes within the liposome was used. In order to completely reduce the NBD located at the outer surface of the membrane, LUVs were treated with sodium dithionite 100 mM (from a stock solution of 1 M dithionite in 1 M TRIS, pH 10.0) for approximately 1 h on ice in the dark. Excess sodium dithionite was removed by size exclusion chromatography through a Sephadex G-75 50 DNA Grade filtration column (GE Healthcare) eluted with a buffer containing 10 mM TRIS, 100 mM NaCl, and 1 mM EDTA, pH 7.4.
In the inner monolayer assay, the fluorescence from the vesicle membranes’ outer monolayer is eliminated by the addition of an aqueous reducing agent; while in the lipid mixing experiment we measured both hemi-fusion and complete fusion, in this experiment we determined only the extent of lipid mixing between the inner monolayers.

[2] = Tryptophan quenching by acrylamide; assay type: physicochemical; details: peptide 4 µM, peptide/lipid 1/200, acrylamide up to 0.2 M, λex 295 nm, λem 340 nm
Protocol: (§1) A solution containing 4 µM of gH625 in the absence or presence of LUVs at a peptide/lipid molar ratio of 1/200, was titrated with the water-soluble quencher acrylamide (4 M mother solution). The maximal concentration of acrylamide in the samples is 0.2 M. Fluorescence was measured with λex 295 nm and λem 340 nm[43]. The data were analysed with the Stern-Volmer equation[43], F0/F = 1 + Ksv [Q], where F0 and F represent the fluorescence intensities in the absence and the presence of the quencher (Q), respectively. The Ksv is the Stern-Volmer quenching constant, and is correlated to the accessibility of the tryptophan residue to acrylamide. […] Ksv is thus determined by the amount of non-lipid-associated free peptide as well as the peptide fraction located on the surface of the bilayer.
(§2) The observed changes in the tryptophan emission upon binding to lipid vesicles indicate gH625 insertion into the hydrophobic region of the bilayers. We determined the accessibility of the tryptophan residues of membrane bound peptides towards acrylamide, a neutral, water-soluble quencher, which is unable to penetrate into the hydrophobic core of the lipid bilayer. In fact, tryptophan residues more deeply buried inside the membrane are less strongly quenched.

[3] = Circular dichroism spectroscopy in aqueous solution; assay type: physicochemical; details: room temperature
Protocol: CD spectra were recorded at room temperature on a Jasco J-715 spectropolarimeter in a 0.1 cm quartz cell. The spectra are an average of 3 consecutive scans from 260 to 190 nm, recorded with a band width of 3 nm, a time constant of 16 s, and a scan rate of 10 nm/min. Spectra were recorded and corrected for the blank. Mean residue ellipticities (MRE) were calculated as MRE = Obsd/lcn (Obsd is the ellipticity measured in millidegrees, l is the path length of the cell in cm, c is the peptide concentration in mol/l, and n is the number of amino acid residues in the peptide). A solution of 8 µM of peptide with SUVs, was prepared as previously described. […] The percentage of helix was calculated from measurements of their mean residue ellipticity at 222 nm[44]. We used [ϑ]222 values of 0 and −40.000(1–2.5/n) deg cm^2 dmol^−1 per amino acid residue for 0% and 100% helicity; n is the number of amino acid residues. The ratio of the ellipticities at 222 and 208 nm were used to discriminate between monomeric and oligomeric states of helices. The experiment was performed before and after centrifugation to remove eventual precipitated peptides from solution.

[4] = design: method as in PMID 25792823; details: after 3.5 h of incubation in serum; cited from earlier work
[5] = Tryptophan quenching by acrylamide in buffer; assay type: physicochemical; details: no LUVs, peptide 4 µM, acrylamide up to 0.2 M, λex 295 nm, λem 340 nm
Protocol: as §1, §2

[6] = previous work; cited from earlier work
Source text: In general a high accumulation in the target tissue results in an improved therapeutic effect, while a large amount of drug distributed to non-target organs may cause unwanted toxicity and/or side effects. It is thus fundamental to reduce liver metabolism and renal clearance to produce prolonged blood circulation with an i ...

ANTS/DPX leakage assay = details: 0.1 mM lipid, 5 mM Hepes, 100 mM NaCl, pH 7.4, 37 °C, data not shown
Protocol: The ANTS/DPX experiment was used to evaluate leakage of encapsulated dyes induced by the peptide. The peptide in 5 mM Hepes and 100 mM NaCl at pH 7.4 was added to the stirred vesicle suspension (0.1 mM lipid) containing ANTS and DPX at 37 °C. Details of this assay have been previously reported.

CC[C@H](C)[C@H](NC(=O)[C@H](CC(C)C)NC(=O)[C@H](C)NC(=O)[C@H](CC(N)=O)NC(=O)[C@H](Cc1ccc(O)cc1)NC(=O)[C@H](Cc1c[nH]cn1)NC(=O)[C@H](C)NC(=O)[C@H](Cc1c[nH]c2ccccc12)NC(=O)[C@H](CCCNC(=N)N)NC(=O)[C@@H](NC(=O)[C@H](CC(C)C)NC(=O)[C@@H](NC(=O)[C@H](CO)NC(=O)[C@H](C)NC(=O)[C@H](CC(C)C)NC(=O)CNC(=O)[C@@H](N)Cc1c[nH]cn1)[C@@H](C)O)[C@@H](C)O)C(=O)N[C@@H](CCCNC(=N)N)C(=O)N[C@@H](C)C(=O)N[C@@H](Cc1ccccc1)C(N)=O [gH625] (H-HGLASTLTRWAHYNALIRAF-NH2)
Inner monolayer fusion ([1]; at a P/L ratio corresponding to 100% of fusion, BBB mimicking LUVs): approximately 20% | Inner monolayer fusion ([1]; at a peptide/lipid ratio with 100% of lipid mixing, liver mimicking LUVs): 100% | Stern-Volmer quenching constant (Ksv) ([2]; BBB mimicking LUVs): 2.05 ± 0.08 M⁻¹ | Stern-Volmer quenching constant (Ksv) ([2]; liver mimicking LUVs): 3.04 ± 0.06 M⁻¹ | Secondary structure by CD [3]: mainly random coil structure | Serum stability, intact peptide [4]: significant amount of intact peptide | Stern-Volmer quenching constant (Ksv) [5]: 10.21 ± 0.15 M⁻¹ | Alterations of cell viability or maximal mitochondrial oxidative capacity linked to uptake [6]: not linked to alterations of cell viability or maximal mitochondrial oxidative capacity | Leakage of encapsulated dyes (ANTS/DPX) (ANTS/DPX leakage assay; BBB mimicking LUVs): did not present any leakage | Leakage of encapsulated dyes (ANTS/DPX) (ANTS/DPX leakage assay; liver mimicking LUVs): did not present any leakage
